In one assay the test system is Alternaria solani. The assay is described as follows: Liquid culture test in well plates: Alternaria solani (early blight of tomato/potato), Example 1-2. Particulars: for inhibition at 0.0012 ppm: component (B) alone at 0.0012 ppm. It is filed as cell-based. As for the experimental part: Mycelia fragments or conidia suspensions of a fungus, prepared either freshly from liquid cultures of the fungus or from cryogenic storage, are directly mixed into nutrient broth. DMSO solutions of the test compound (max. 10 mg/mL) is diluted with 0.025% Tween20 by factor 50 and 10 μL of this solution is pipetted into a microtiter plate (96-well format). […] The test plates are incubated in the dark at 24° C. and 96% relative humidity (rh). […]
Conidia of the fungus from cryogenic storage were directly mixed into nutrient broth (PDB potato dextrose broth). After placing a DMSO solution of the test compositions into a microtiter plate (96-well format) the nutrient broth containing the fungal spores was added.

The next assay concerns Botrytis cinerea. The assay is described as follows: Liquid culture test in well plates: Botrytis cinerea (Gray mould), Example 1-1. It is filed as cell-based. The method, then:
Mycelia fragments or conidia suspensions of a fungus, prepared either freshly from liquid cultures of the fungus or from cryogenic storage, are directly mixed into nutrient broth. DMSO solutions of the test compound (max. 10 mg/mL) is diluted with 0.025% Tween20 by factor 50 and 10 μL of this solution is pipetted into a microtiter plate (96-well format). […] The test plates are incubated in the dark at 24° C. and 96% relative humidity (rh). The inhibition of fungal growth is determined photometrically and visually after 3-7 days, depending on the pathosystem, and percent antifungal activity relative to the untreated check is calculated.
Conidia of the fungus from cryogenic storage were directly mixed into nutrient broth (PDB potato dextrose broth). After placing a DMSO solution of the test compositions into a microtiter plate (96-well format), the nutrient broth containing the fungal spores was added.

Where [1] appears, read: component (B) alone at 0.0003 ppm, 72 hours.
The mark [2] stands for this setting: Alternaria solani, component (B) alone at 0.0025 ppm, 48 hours, read-out: (B) inhibition.
Setting [3] is: Botrytis cinerea, component (B) alone at 0.0006 ppm, 72 hours, read-out: (B) inhibition.
[4] abbreviates: Botrytis cinerea, component (B) alone at 0.0012 ppm, 72 hours, read-out: (B) inhibition.
Where [5] appears, read: Botrytis cinerea, component (B) alone at 0.0025 ppm, 72 hours.
The mark [6] stands for this setting: Botrytis cinerea, component (B) alone at 0.0050 ppm, 72 hours.
Where [7] appears, read: Botrytis cinerea, component (B) alone at 0.0003 ppm, 72 hours.
The mark [8] stands for this setting: component (B) alone at 0.0050 ppm, 48 hours.
Setting [9] is: component (B) alone at 0.0006 ppm, 72 hours.
Setting [10] is: component (B) alone at 0.0050 ppm, 72 hours.
The mark [11] stands for this setting: component (B) alone at 0.0012 ppm, 72 hours.

“And” between values parts separate entries of the source, which are not always exact repeats. Equal entries are not always repeated. Where two headings read alike, the source gives them in different places. *1 amine or outer side, *2 acyl side, *3 side chain or, on linkers, in order; H or OH if unused. Where a SMILES comes first, the peptide text is derived from it. [ ]: non-standard residue; d: D form. ξ: configuration not given here. ξNMeVal(3-OH) = CNC(C(=O)O)C(C)(C)O; NMeF = CN[CH](Cc1ccccc1)C(=O)O; X1 = CCC(C)C(O[*:1])C(=O)[*:2]; NMeV = CN[CH](C(=O)O)C(C)C

Take `CCC(C)C1NC(=O)C2CCCN2C(=O)C(Cc2ccccc2)N(C)C(=O)C(Cc2ccccc2)NC(=O)C(C(C)C)N(C)C(=O)C(C(C)CC)OC(=O)C(C(C)(C)O)N(C)C(=O)C(CC(C)C)NC(=O)C(C(C)C)N(C)C1=O` (stereo not shown) [Aureobasidin A] (cyclo([ξNMeVal(3-OH)][X1][NMeV]F[NMeF]PI[NMeV]L); configuration not given here): the inhibition at 0.0001 ppm with Alternaria solani (Alternaria solani, 48 h, read-out: (A) inhibition, Aureobasidin A (A) alone at 0.0001 ppm) turned out to be 9%. Moreover, in the assay on Alternaria solani (Alternaria solani, 48 h, read-out: (A) inhibition, Aureobasidin A (A) alone at 0.0025 ppm), the inhibition at 0.0025 ppm worked out at 20%. In addition, the inhibition at 0.005 ppm in the assay on Alternaria solani (Alternaria solani, 48 h, read-out: (A) inhibition, Aureobasidin A (A) alone at 0.0050 ppm) was determined as 5%. For the same compound, the inhibition at 0.01 ppm in the assay with Alternaria solani (Alternaria solani, 48 h, read-out: (A) inhibition, Aureobasidin A (A) alone at 0.0100 ppm) was determined as 17%. Moreover, in the assay with Alternaria solani (Alternaria solani, 48 h, read-out: (A) inhibition, Aureobasidin A (A) alone at 0.0400 ppm), the inhibition at 0.04 ppm was found to be 36%. For the same compound, the “(A) inhibition” value in the assay on Alternaria solani (Aureobasidin A (A) alone at 0.0050 ppm, 48 hours) is 3%; in the assay with Alternaria solani (Aureobasidin A (A) alone at 0.0100 ppm, 48 hours), 14%; in the assay with Botrytis cinerea (Aureobasidin A (A) alone at 0.0003 ppm, 72 hours), 9% and 1%; in the assay with Botrytis cinerea (Aureobasidin A (A) alone at 0.0006 ppm, 72 hours), 6%; in the assay on Botrytis cinerea (Aureobasidin A (A) alone at 0.0200 ppm, 72 hours) it was 32%. Moreover, the inhibition at 0.0002 ppm with Botrytis cinerea (Botrytis cinerea, 72 h, read-out: (A) inhibition, Aureobasidin A (A) alone at 0.0002 ppm) came to 5%. The inhibition at 0.0006 ppm in the assay on Botrytis cinerea (Botrytis cinerea, 72 h, read-out: (A) inhibition, Aureobasidin A (A) alone at 0.0006 ppm) was 9%. Besides, in the assay on Botrytis cinerea (Botrytis cinerea, 72 h, read-out: (A) inhibition, Aureobasidin A (A) alone at 0.0012 ppm), the inhibition at 0.0012 ppm is 9%.
On to `CC1(C)N=C(c2cnc3ccccc3c2)c2ccccc2C1(F)F` [B-1, quinofumelin], for which the “(B) inhibition” value in the assay with Botrytis cinerea (setting [1]) amounted to 27%; with Botrytis cinerea (component (B) alone at 0.0005 ppm, 72 hours), 37%.
Regarding `Cc1ccc2c(C3=NC(C)(C)C(F)(F)c4c(F)cccc43)cnn2c1C` [B-5, 1-(6,7-dimethylpyrazolo[1,5-a]pyridin-3-yl)-4,4,5-trifluoro-3,3-dimethyl-isoquinoline], the inhibition at 0.0012 ppm worked out at 30% in the assay on Alternaria solani (Alternaria solani, 48 hours) and 40% with Botrytis cinerea (setting [4]). The inhibition at 0.0025 ppm came out at 56% in the assay on Alternaria solani (setting [2]) and 57% in the assay with Botrytis cinerea (setting [5]). Besides, the inhibition at 0.0006 ppm with Botrytis cinerea (setting [3]) was determined as 17%. The same compound yielded an inhibition at 0.005 ppm with Botrytis cinerea (setting [6]) of 75%.
Regarding `Cc1ccc2c(C3=NC(C)(C)C(F)(F)c4cc(F)ccc43)cnn2c1C` [B-6, 1-(6,7-dimethylpyrazolo[1,5-a]pyridin-3-yl)-4,4,6-trifluoro-3,3-dimethyl-isoquinoline], the inhibition at 0.0006 ppm in the assay with Alternaria solani (Alternaria solani, component (B) alone at 0.0006 ppm, 48 hours) was determined as 22%; in the assay on Botrytis cinerea (setting [3]), 25%. Further, the inhibition at 0.0012 ppm was determined as 39% with Alternaria solani (Alternaria solani, 48 hours) and 34% in the assay with Botrytis cinerea (setting [4]). Moreover, the results for the inhibition at 0.0025 ppm in the assay on Alternaria solani (setting [2]) and with Botrytis cinerea (setting [5]) were 59% and 68%, respectively. Moreover, the inhibition at 0.005 ppm in the assay with Botrytis cinerea (setting [6]) is 84%.
Take `Cc1cccc2c(C3=NC(C)(C)C(F)(F)c4ccccc43)cnn12` [B-7, 4,4-difluoro-3,3-dimethyl-1-(7-methylpyrazolo[1,5-a]pyridin-3-yl)isoquinoline]: the inhibition at 0.01 ppm in the assay with Alternaria solani (Alternaria solani, component (B) alone at 0.0100 ppm, 48 hours, read-out: (B) inhibition) is 63%. Besides, the inhibition at 0.0006 ppm with Botrytis cinerea (setting [3]) is 18%. Further, the inhibition at 0.0012 ppm in the assay on Botrytis cinerea (setting [4]) came out at 40%.
Regarding `Cc1ccc2c(ncn2C2=NC(C)(C)C(F)(F)c3c(F)cccc32)c1C` [B-8, 1-(4,5-dimethylbenzimidazol-1-yl)-4,4,5-trifluoro-3,3-dimethyl-isoquinoline], the inhibition at 0.0012 ppm with Alternaria solani (Alternaria solani, 48 hours) worked out at 38%; in the assay with Botrytis cinerea (setting [4]), 50%. The compound also showed an inhibition at 0.0003 ppm in the assay on Botrytis cinerea (setting [7]) of 22%. The inhibition at 0.0006 ppm in the assay with Botrytis cinerea (setting [3]) came out at 40%.
For `Cc1ccc2c(ncn2C2=NC(C)(C)C(F)(F)c3ccccc32)c1C` [B-9, 1-(4,5-dimethylbenzimidazol-1-yl)-4,4-difluoro-3,3-dimethyl-isoquinoline], the inhibition at 0.0012 ppm in the assay with Alternaria solani (Alternaria solani, 48 hours) is 24%; in the assay on Botrytis cinerea (setting [4]), 45%. In the assay with Botrytis cinerea (setting [7]), the inhibition at 0.0003 ppm was 9%. The inhibition at 0.0006 ppm in the assay on Botrytis cinerea (setting [3]) amounted to 28%.
With `Cc1cccc2c1ncn2C1=NC(C)(C)C(F)(F)c2cc(Cl)ccc21` [B-10, 6-chloro-4,4-difluoro-3,3-dimethyl-1-(4-methylbenzimidazol-1-yl)isoquinoline], the inhibition at 0.0006 ppm in the assay on Botrytis cinerea (setting [3]) was 21%. For the same compound, the inhibition at 0.0012 ppm in the assay with Botrytis cinerea (setting [4]) came to 39%. In the assay on Botrytis cinerea (setting [5]), this compound came in with an inhibition at 0.0025 ppm of 49%.
Take “N-[(1R)-1-benzyl-1,3-dimethyl-butyl]-8-fluoro-quinoline-3-carboxamide/N-[(1S)-1-benzyl-1,3-dimethyl-butyl]-8-fluoro-quinoline-3-carboxamide [B-2]”: the “(B) inhibition” value is 0% in the assay with Alternaria solani (component (B) alone at 0.0025 ppm, 48 hours); 10% with Alternaria solani (setting [8]); 52% in the assay on Alternaria solani (component (B) alone at 0.0100 ppm, 48 hours); 2% in the assay with Botrytis cinerea (setting [1]); 35% with Botrytis cinerea (setting [9]); 70% in the assay on Botrytis cinerea (setting [10]).
As for “N-[(1R)-1-benzyl-3,3,3-trifluoro-1-methyl-propyl]-8-fluoro-quinoline-3-carboxamide/N-[(1S)-1-benzyl-3,3,3-trifluoro-1-methyl-propyl]-8-fluoro-quinoline-3-carboxamide [B-3]”, the “(B) inhibition” value in the assay with Botrytis cinerea (setting [9]) is given as 10%; with Botrytis cinerea (setting [11]), 32%; in the assay on Botrytis cinerea (setting [10]) it was 52%.
“N-[(1R)-1-benzyl-3-chloro-1-methyl-but-3-enyl]-8-fluoro-quinoline-3-carboxamide/N-[(1S)-1-benzyl-3-chloro-1-methyl-but-3-enyl]-8-fluoro-quinoline-3-carboxamide [B-4]”: the “(B) inhibition” value with Alternaria solani (setting [8]) was found to be 32%; with Botrytis cinerea (setting [9]) it was 33%; in the assay with Botrytis cinerea (setting [11]), 46%; with Botrytis cinerea (component (B) alone at 0.0025 ppm, 72 hours), 60%.

Values taken from US12527322B2, “Fungicidal compositions” (SYNGENTA CROP PROTECTION AG, priority 2020, dated 2026).
